In general, inhibition refers to the relative decrease from the control value, in per cent. A word on the IC50: it is the concentration that gives 50% inhibition.

Like-named read-outs stand apart in the source and are kept apart here.

The text below walks through data of patent US11186576B2, “Pyrazolo[1,5-A][1,3,5]triazine and pyrazolo[1,5-A]pyrimidine derivatives as CDK inhibitors” (Aurigene Discovery Technologies Limited, priority 2015, dated 2021).

The target in this experiment is CDK7/CycH/MNAT1 (Homo sapiens (Human), UniProt P50613). In words: Biochemical assay for CDK7 (TR-FRET kinase assay). The note with it: for inhibition at 10 µM: read-out: % inhibition @ 10 μM. The protocol: The ability of compounds to inhibit CDK7 kinase activity was tested in a TR-FRET assay using 5 nM of CDK7/CycH/MNAT1 obtained from Invitrogen, USA. Test compounds were pre-incubated with the kinase at room temperature for 60 min. After incubation, substrate mix [100 nM Ultra-light MBP (Perkin Elmer, USA) and 1 mM ATP (Sigma)] was added. The above reaction was stopped by the addition of 40 mM EDTA after 60 minutes of kinase reaction. 1 nM Eu-labelled antiphospho-MBP antibody [Perkin Elmer, USA] was added, mixed well and the fluorescence emission at 615 nm and 665 nm [excitation at 340 nm] was measured. The final DMSO concentration in the assay was 1%. For IC50 determination, appropriate concentrations were made by ⅓^rd serial dilutions of 10 mM DMSO stock solution of test compound. All the fluorescence measurements were made in a Victor 3 Multilabel Counter [Perkin Elmer, USA]. The IC50 was determined by fitting the dose response data to sigmoidal curve fitting equation using GraphPad Prism software V5. To identify compounds that inhibit CDK7 irreversibly, time depended inhibition studies were carried by pre-incubating compound with the enzyme at three time points (20, 60 and 180 min) and carrying out assay as described above.
(In general: TR-FRET usually uses a lanthanide donor and a delayed reading to cut background.)

Setting [1] is: 10 μM compound, 60 min pre-incubation, 1 mM ATP.
Setting [2] is: 60 min pre-incubation, 1 mM ATP, read-out: IC50.

CDK7/CycH/MNAT1, sequence (P50613 whole entry): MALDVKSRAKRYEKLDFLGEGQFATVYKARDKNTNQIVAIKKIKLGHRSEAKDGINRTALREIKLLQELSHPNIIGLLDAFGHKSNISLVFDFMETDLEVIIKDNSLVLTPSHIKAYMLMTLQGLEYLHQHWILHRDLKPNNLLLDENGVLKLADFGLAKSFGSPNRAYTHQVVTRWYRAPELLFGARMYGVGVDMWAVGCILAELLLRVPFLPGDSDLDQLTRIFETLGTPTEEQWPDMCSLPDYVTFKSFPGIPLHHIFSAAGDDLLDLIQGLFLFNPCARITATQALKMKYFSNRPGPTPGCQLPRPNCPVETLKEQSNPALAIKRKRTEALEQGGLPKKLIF
CDK7/CycH/MNAT1, sequence (P51946 whole entry partner): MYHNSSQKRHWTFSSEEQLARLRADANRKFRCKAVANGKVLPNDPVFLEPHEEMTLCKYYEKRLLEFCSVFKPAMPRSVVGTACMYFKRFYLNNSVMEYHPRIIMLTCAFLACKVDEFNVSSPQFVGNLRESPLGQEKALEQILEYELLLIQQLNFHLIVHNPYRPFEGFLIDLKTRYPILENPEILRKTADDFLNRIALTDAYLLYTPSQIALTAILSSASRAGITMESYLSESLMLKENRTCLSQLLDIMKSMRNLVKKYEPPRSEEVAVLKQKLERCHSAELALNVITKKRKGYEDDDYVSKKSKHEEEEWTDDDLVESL
CDK7/CycH/MNAT1, sequence (P51948 whole entry partner): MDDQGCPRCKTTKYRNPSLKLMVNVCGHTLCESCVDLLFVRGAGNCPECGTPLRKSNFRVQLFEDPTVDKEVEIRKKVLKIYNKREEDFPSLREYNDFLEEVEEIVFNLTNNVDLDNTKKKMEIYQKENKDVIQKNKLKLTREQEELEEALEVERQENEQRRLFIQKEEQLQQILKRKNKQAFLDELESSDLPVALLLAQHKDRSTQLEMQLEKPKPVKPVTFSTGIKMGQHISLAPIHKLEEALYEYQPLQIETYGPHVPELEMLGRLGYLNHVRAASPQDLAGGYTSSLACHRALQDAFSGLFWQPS

Regarding `C#CC(=O)N1CCOCC1C(=O)Nc1cccc(CNc2nc(NC3CCOCC3)nc3c(C(C)C)cnn23)c1` (stereo not drawn) [Compound 25, N-(3-(((8-isopropyl-2-((tetrahydro-2H-pyran-4-yl)amino)pyrazolo[1,5-a][1,3,5]triazin-4-yl)amino)methyl)phenyl)-4-propioloylmorpholine-3-carboxamide], the inhibition at 10 µM under setting [1] amounted to 99%. Moreover, the 50% inhibitory concentration (IC50) under setting [2] is under 300 nM. For `CC(C)c1cnn2c(NCc3cccc(NC(=O)/C=C/CN(C)C)c3F)nc(NC3CCOCC3)nc12` [Compound 60, (E)-4-(dimethylamino)-N-(2-fluoro-3-(((8-isopropyl-2-((tetrahydro-2H-pyran-4-yl)amino)pyrazolo[1,5-a][1,3,5]triazin-4-yl)amino)methyl)phenyl)but-2-enamide], in that order: 98% and under 300 nM. As to `C=CC(=O)N[C@H]1CC[C@@H](C(=O)Nc2cc(CNc3nc(OC4CCN(C)CC4)nc4c(C(C)C)cnn34)ccc2F)CC1` [Compound 118, (1,4-cis)-4-acrylamido-N-(2-fluoro-5-(((8-isopropyl-2-((1-methylpiperidin-4-yl)oxy)pyrazolo[1,5-a][1,3,5]triazin-4-yl)amino)methyl)phenyl)cyclohexane-1-carboxamide], the inhibition at 10 µM under setting [1] is 93%. The IC50 under setting [2] was 300 to 1000 nM. For the compound `C=CC(=O)Nc1cccc(C(=O)Nc2cccc(CNc3nc(NC4CCOCC4)nc4c(C(C)C)cnn34)c2)c1C` [Compound 48A, 3-acrylamido-N-(3-(((8-isopropyl-2-((tetrahydro-2H-pyran-4-yl)amino)pyrazolo[1,5-a][1,3,5]triazin-4-yl)amino)methyl)phenyl)-2-methylbenzamide], the IC50 under setting [2] was under 300 nM. Still for that read-out and setting: for `C=CC(=O)N1CCCCC1C(=O)Nc1cccc(CNc2nc(N[C@H]3CCCOC3)nc3c(C(C)C)cnn23)c1` (stereo partly drawn) [Compound 16, 1-acryloyl-N-(3-(((8-isopropyl-2-(((S)-tetrahydro-2H-pyran-3-yl)amino)pyrazolo[1,5-a][1,3,5]triazin-4-yl)amino)methyl)phenyl)piperidine-2-carboxamide] the value was under 300 nM. `C=CC(=O)N1CCN(C(=O)Oc2cccc(CNc3nc(OC4CCN(C)CC4)nc4c(C(C)C)cnn34)c2)CC1` [Compound 121, 3-(((8-isopropyl-2-((1-methylpiperidin-4-yl)oxy)pyrazolo[1,5-a][1,3,5]triazin-4-yl)amino)methyl)phenyl 4-acryloylpiperazine-1-carboxylate]: the inhibition at 10 µM is 93%. The compound also came in with an IC50 (IC50, 60 min pre-incubation, 1 mM ATP) of under 300 nM. Consider `C=CC(=O)N1CCCCC1C(=O)Nc1ccc(C)c(CNc2nc(NC3CCOCC3)nc3c(C(C)C)cnn23)c1` (stereo not drawn) [Compound 34, 1-acryloyl-N-(3-(((8-isopropyl-2-((tetrahydro-2H-pyran-4-yl)amino)pyrazolo[1,5-a][1,3,5]triazin-4-yl)amino)methyl)-4-methylphenyl)piperidine-2-carboxamide], for which the inhibition at 10 µM under setting [1] came out at 73%. Moreover, the IC50 under setting [2] was over 1000 nM.

Take `CC(C)c1cnn2c(NCC3CCN(C(=O)/C=C/CN4CCCC4)CC3)nc(NC3CCOCC3)nc12` [Compound 138, (E)-1-(4-(((8-isopropyl-2-((tetrahydro-2H-pyran-4-yl)amino)pyrazolo[1,5-a][1,3,5]triazin-4-yl)amino)methyl)piperidin-1-yl)-4-(pyrrolidin-1-yl)but-2-en-1-one]: under setting [1], the inhibition at 10 µM was 64%. In addition, under setting [2], the 50% inhibitory concentration (IC50) is over 1000 nM. For `COC/C=C/C(=O)N1CCC(C(=O)Nc2cccc(CNc3nc(NC4CCOCC4)nc4c(C(C)C)cnn34)c2)C1` (stereo not drawn) [Compound 68, (E)-N-(3-(((8-isopropyl-2-((tetrahydro-2H-pyran-4-yl)amino)pyrazolo[1,5-a][1,3,5]triazin-4-yl)amino)methyl)phenyl)-1-(4-methoxybut-2-enoyl)pyrrolidine-3-carboxamide], in that order: 92% and 300 to 1000 nM. With `C=CC(=O)N1CCN(C(=O)Oc2cccc(CNc3nc(NC4CCOCC4)nc4c(C(C)C)cnn34)c2)CC1` [Compound 46, 3-(((8-isopropyl-2-((tetrahydro-2H-pyran-4-yl)amino)pyrazolo[1,5-a][1,3,5]triazin-4-yl)amino)methyl)phenyl 4-acryloylpiperazine-1-carboxylate], under setting [1], the inhibition at 10 µM was found to be 98%. Moreover, the IC50 under setting [2] was under 300 nM. Turning to `C=CC(=O)N[C@H]1CC[C@@H](C(=O)Nc2cccc(CNc3nc(OC4CCOCC4F)nc4c(C(C)C)cnn34)c2)CC1` (single isomer, unassigned) [Compound 99, 4-acrylamido-N-(3-(((2-((3-fluorotetrahydro-2H-pyran-4-yl)oxy)-8-isopropylpyrazolo[1,5-a][1,3,5]triazin-4-yl)amino)methyl)phenyl)cyclohexane-1-carboxamide], the “% inhibition @ 10 μM” value under setting [1] was 82%. Further, the IC50 under setting [2] is over 1000 nM. Turning to `C=CC(=O)NC1CCC(C(=O)Nc2cccc(Nc3nc(OC4CCN(C)CC4)nc4c(C(C)C)cnn34)c2)CC1` (stereo not drawn) [Compound 126, (1,4-cis)-4-acrylamido-N-(3-((8-isopropyl-2-((1-methylpiperidin-4-yl)oxy)pyrazolo[1,5-a][1,3,5]triazin-4-yl)amino)phenyl)cyclohexane-1-carboxamide], under setting [1], the inhibition at 10 µM came out at 80%. For `C=CC(=O)N1CCC(C(=O)Nc2cccc(CNc3nc(OC)nc4c(C(C)C)cnn34)c2)CC1` [Compound 136, 1-acryloyl-N-(3-(((8-isopropyl-2-methoxypyrazolo[1,5-a][1,3,5]triazin-4-yl)amino)methyl)phenyl)piperidine-4-carboxamide], the inhibition at 10 µM under setting [1] worked out at 73%. Moreover, the half-inhibitory concentration (IC50) under setting [2] was over 1000 nM. Consider `CC(C)c1cnn2c(NCc3cc(F)cc(NC(=O)C4CCN(C(=O)/C=C/CN(C)C)C4)c3)nc(NC3CCOCC3)nc12` (stereo not drawn) [Compound 71, (E)-1-(4-(dimethylamino)but-2-enoyl)-N-(3-fluoro-5-(((8-isopropyl-2-((tetrahydro-2H-pyran-4-yl)amino)pyrazolo[1,5-a][1,3,5]triazin-4-yl)amino)methyl)phenyl)pyrrolidine-3-carboxamide], for which the inhibition at 10 µM under setting [1] came out at 92%. For the same compound, the IC50 under setting [2] was in the range of 300 to 1000 nM. Take `C=CC(=O)N1CCC(C(=O)Nc2cccc(CNc3nc(OCCOCCOC)nc4c(C(C)C)cnn34)c2)C1` (stereo not drawn) [Compound 104, 1-acryloyl-N-(3-(((8-isopropyl-2-(2-(2-methoxyethoxy)ethoxy)pyrazolo[1,5-a][1,3,5]triazin-4-yl)amino)methyl)phenyl)pyrrolidine-3-carboxamide]: the inhibition at 10 µM under setting [1] was 78%. Further, the IC50 under setting [2] is over 1000 nM.

On to `C=CC(=O)NC(C)C(=O)Nc1cccc(CNc2nc(NC3CCOCC3)nc3c(C(C)C)cnn23)c1` (stereo not drawn) [Compound 80, N-(1-((3-(((8-isopropyl-2-((tetrahydro-2H-pyran-4-yl)amino)pyrazolo[1,5-a][1,3,5]triazin-4-yl)amino)methyl)phenyl)amino)-1-oxopropan-2-yl)acrylamide], for which, under setting [1], the inhibition at 10 µM was 94%. For the same compound, the IC50 under setting [2] is 300 to 1000 nM. For `C=CC(=O)N[C@H]1CC[C@@H](C(=O)Nc2ccc(F)c(CNc3nc(NC4CCOCC4)nc4c(C(C)C)cnn34)c2)CC1` [Compound 39, (1,4-cis)-4-acrylamido-N-(4-fluoro-3-(((8-isopropyl-2-((tetrahydro-2H-pyran-4-yl)amino)pyrazolo[1,5-a][1,3,5]triazin-4-yl)amino)methyl)phenyl)cyclohexane-1-carboxamide], in that order: 76% and over 1000 nM.

For `C=CC(=O)N1CCC1C(=O)Nc1cccc(CNc2cc(NC3CCOCC3)nc3c(C(C)C)cnn23)c1` (stereo not drawn) [Compound 139, 1-acryloyl-N-(3-(((3-isopropyl-5-((tetrahydro-2H-pyran-4-yl)amino)pyrazolo[1,5-a]pyrimidin-7-yl)amino)methyl)phenyl)azetidine-2-carboxamide], the inhibition at 10 µM under setting [1] came out at 98%. Moreover, the half-inhibitory concentration (IC50) under setting [2] was under 300 nM. For `C=CC(=O)N1CCC1C(=O)Nc1ccc(F)c(CNc2nc(NC3CCOCC3)nc3c(C(C)C)cnn23)c1` (stereo not drawn) [Compound 29, 1-acryloyl-N-(4-fluoro-3-(((8-isopropyl-2-((tetrahydro-2H-pyran-4-yl)amino)pyrazolo[1,5-a][1,3,5]triazin-4-yl)amino)methyl)phenyl)azetidine-2-carboxamide], in that order: 98% and under 300 nM. For `C=CC(=O)N1CCOC(C(=O)Nc2cccc(CNc3nc(OC4CCN(C)CC4)nc4c(C(C)C)cnn34)c2)C1` (stereo not drawn) [Compound 112, 4-acryloyl-N-(3-(((8-isopropyl-2-((1-methylpiperidin-4-yl)oxy)pyrazolo[1,5-a][1,3,5]triazin-4-yl)amino)methyl)phenyl)morpholine-2-carboxamide], in that order: 99% and under 300 nM.

For the compound `CC(C)c1cnn2c(NCc3cc(F)cc(NC(=O)/C=C/CN4CCOCC4)c3)nc(NC3CCOCC3)nc12` [Compound 61, (E)-N-(3-fluoro-5-(((8-isopropyl-2-((tetrahydro-2H-pyran-4-yl)amino)pyrazolo[1,5-a][1,3,5]triazin-4-yl)amino)methyl)phenyl)-4-morpholinobut-2-enamide], the inhibition at 10 µM under setting [1] turned out to be 76%. Moreover, the concentration for half-maximal inhibition (IC50) under setting [2] is over 1000 nM.
